Measurements published in US8058285B2, “Substituted pyrido [3′, 2′: 4, 5] thieno [3, 2-D] pyrimidines and pyrido [3′, 2′: 4, 5] furo [3, 2-D] pyrimidines used as inhibitors of the PDE-4 and/or the release of TNF-ALPHA” (The Medicines Company (Leipzig) GmbH, priority 2004, dated 2011).
Structures can show the parent of a compound that is named as a salt.

How the values were obtained:
PDE-4A = biological target: T1, PDE-4A (Homo sapiens, UniProt P27815); assay: PDE-4A inhibitory assay (SPA); format: biochemical
T1 construct: PDE-4A catalytic domain comprising amino acids 342-704; made in house; host or cells: Escherichia coli
Outline: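 Human recombinant PDE-4A catalytic domain (aa 342-704), E. coli-expressed. SPA with 1 μM [^3H]-cAMP substrate in 100 mM Tris-HCl pH 7.5, 5 mM MgCl2, 1% DMSO; 20 min at 22° C. Non-specific activity with 100 μM rolipram subtracted.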

TNFα release = assay: LPS-induced TNFα release in diluted human blood (ELISA); format: cell-based; conditions: LPS 1 μg/ml, human blood diluted 1:5, 24 h; read-out: IC50 value in the TNFα inhibitory assay
From the text: Isolated leukocytes can be stimulated for the release of cytokines in different ways. Lipopolysaccharides (LPS) are a stimulus for the investigation of the TNFα release. LPS is part of bacterial cell walls and is released when the bacteria are killed (by antibiotics or the natural immune system). LPS stimulates in particular the activity of phagocytizing leukocytes (tissue macrophages, granulocytes, monocytes) and causes the infiltration of leukocytes from the peripheral blood into the affected tissue. A cytokine of special significance for these mechanisms is TNFα which is secreted in large amounts by the affected cells. The main source are here monocytes and macrophages. TNFα initiates and prolongs the inflammatory process in cooperation with other mediators.
For the investigation of the effect on the LPS-induced TNFα release a method was used which was described by Marx, D., Tassabehji, M., Heer, S., Hüttenbrink, K.-B., and I. Szelenyi, Pulmonary Pharmacology & Therapeutics (2002) 15, 7-15. The method is briefly: Human blood was taken from various donors, rendered incoagulable by the addition of 10 mM Na citrate and diluted 1:5 with RPMI 1640 cell culture medium. The test substances were added to the blood samples at various concentrations. 15 min later, the leukocytes were stimulated by the addition of lipopolysaccharides (LPS) from Salmonella abortus equi at a final concentration of 1 μg/ml. After the incubation of the test batches at 37° C. and under 5% CO2 in a water-saturated air for 24 h, the blood was centrifuged and the TNFα concentration in the cell-free supernatant was accurately measured using a purchasable ELISA (BD Biosciences) according to the manufacturer's instructions.

T1 sequence (P27815 342-704): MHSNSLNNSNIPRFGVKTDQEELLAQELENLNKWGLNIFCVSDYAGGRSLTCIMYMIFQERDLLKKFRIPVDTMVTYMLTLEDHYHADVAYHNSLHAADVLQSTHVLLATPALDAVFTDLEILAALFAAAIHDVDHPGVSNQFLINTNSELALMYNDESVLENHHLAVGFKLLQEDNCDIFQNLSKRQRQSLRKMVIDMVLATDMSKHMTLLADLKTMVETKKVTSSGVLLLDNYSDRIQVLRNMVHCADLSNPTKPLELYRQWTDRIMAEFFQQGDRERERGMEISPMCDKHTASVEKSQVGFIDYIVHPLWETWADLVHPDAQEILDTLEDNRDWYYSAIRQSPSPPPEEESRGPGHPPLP

Row | IC50 (PDE-4A) | IC50 (TNFα release) | SMILES
1 | 2 to 50 nM | < 2000 nM | CCOc1nc(N2CCNCC2)nc2c1sc1nc(-c3cccnc3)cc(C(F)(F)F)c12 [4-Ethoxy-2-piperazin-1-yl-7-(3-pyridyl)-9-trifluoromethyl-pyrido[3′,2′:4,5]thieno[3,2-d]pyrimidine]
2 | < 2 nM | < 2000 nM | CCOc1nc(N2CCNCC2)nc2c1sc1nc(-c3ccc(-c4cccc(N)c4)cc3)nc(C)c12 [7-(3′-Aminobiphen-4-yl)-4-ethoxy-9-methyl-2-piperazin-1-yl-thieno[2,3-d:4,5-d′]dipyrimidine]
3 | 2 to 50 nM | < 2000 nM | CCCOc1nc(N2CCNCC2)nc2c1sc1nc(-c3ccccc3)cc(C)c12 [9-Methyl-7-phenyl-2-(piperazin-1-yl)-4-n-propoxy-pyrido[3′,2′:4,5]thieno[3,2-d]pyrimidine]
4 | 2 to 50 nM | < 2000 nM | CCOc1nc(N2CCNCC2)nc2c1sc1nc(-c3cc[n+]([O-])cc3)cc(C(F)(F)F)c12 [4-Ethoxy-7-(1-oxy-pyridin-4-yl)-2-(piperazin-1-yl)-9-trifluoromethyl-pyrido[3′,2′:4,5]thieno[3,2-d]pyrimidine]
5 | 2 to 50 nM | < 2000 nM | CCOc1nc(N2CCNCC2)nc2c1sc1nc(-c3ccc[n+]([O-])c3)cc(C(F)(F)F)c12 [4-Ethoxy-7-(1-oxy-pyridin-3-yl)-2-(piperazin-1-yl)-9-trifluoromethyl-pyrido[3′,2′:4,5]thieno[3,2-d]pyrimidine]
6 | – | < 2000 nM | CCOc1nc(N2CCNCC2)nc2c1sc1nc(-c3ccc(C(N)=O)cc3)cc(C(F)(F)F)c12 [4-(4-Ethoxy-9-trifluoromethyl-2-piperazin-1-yl-pyrido[3′,2′:4,5]thieno[3,2-d]pyrimidin-7-yl)-benzamide trifluoroacetate]
7 | 2 to 50 nM | – | CCOc1nc(N2CCNCC2)nc2c1sc1nc(-c3ccc(C)cc3)cc(CC(C)C)c12 [9-iso-Butyl-4-ethoxy-7-(4-methyl-phenyl)-2-(piperazin-1-yl)-pyrido[3′,2′:4,5]thieno-[3,2-d]pyrimidine]
8 | < 2 nM | – | CCOc1nc(N2CCNCC2)nc2c1sc1nc(-c3cccc([N+](=O)[O-])c3)cc(C(F)(F)F)c12 [4-Ethoxy-7-(3-nitro-phenyl)-2-piperazin-1-yl-9-trifluoromethyl-pyrido[3′,2′:4,5]thieno[3,2-d]pyrimidine]
9 | < 2 nM | – | CCOc1nc(N2CCNCC2)nc2c1sc1nc(-c3ccc4c(c3)OCO4)cc(CC)c12 [4-Ethoxy-9-ethyl-7-(3,4-methylenedioxyphenyl)-2-piperazin-1-yl-pyrido[3′,2′:4,5]thieno-[3,2-d]pyrimidine]
10 | 2 to 50 nM | – | CCOc1nc(N2CCNCC2)nc2c1sc1nc(N3CCCCC3)c3c(c12)CCCC3 [8-Ethoxy-5-piperidino-10-piperazin-1-yl-pyrimido[4′,5′:4,5]thieno[2,3-c]-1,2,3,4-tetrahydro-isoquinoline-hydrochloride]
11 | < 2 nM | – | CCOc1nc(N2CCNCC2)nc2c1sc1nc(-c3ccc(I)cc3)cc(CC)c12 [4-Ethoxy-9-ethyl-7-(4-iodo-phenyl)-2-(piperazin-1-yl)-pyrido[3′,2′:4,5]thieno[3,2-d]pyrimidine]
12 | 2 to 50 nM | – | CCOc1nc(N2CCNCC2)nc2c1sc1nc(-c3ccccc3)c(Cc3ccc([N+](=O)[O-])cc3)c(C)c12 [4-Ethoxy-9-methyl-8-(4-nitro-benzyl)-7-phenyl-2-(piperazin-1-yl)-pyrido[3′,2′:4,5]thieno[3,2-d]pyrimidine]

Second part, the compound before the results:

Row | SMILES | IC50 (PDE-4A) | IC50 (TNFα release)
13 | CCOc1nc(N2CCNCC2)c2sc3nc(-c4ccc(C(F)(F)F)cc4)cc(C)c3c2n1 [2-Ethoxy-7-(4-trifluoro-methyl-phenyl)-9-methyl-4-(piperazin-1-yl)-pyrido[3′,2′:4,5]thieno[3,2-d]pyrimidine] | 2 to 50 nM | < 2000 nM
14 | CCOc1nc(N2CCNCC2)nc2c1sc1nc(-c3ccccc3)cc(-c3ccccc3)c12 [4-Ethoxy-7,9-diphenyl-2-(piperazin-1-yl)-pyrido[3′,2′:4,5]thieno[3,2-d]pyrimidine] | 2 to 50 nM | < 2000 nM
15 | CCOc1nc(N2CCNCC2)nc2c1sc1nc(-c3ccc(C(N)=NO)cc3)cc(C(F)(F)F)c12 [N′-Hydroxy-4-(4-ethoxy-9-trifluoromethyl-2-piperazin-1-yl-pyrido[3′,2′:4,5]thieno[3,2-d]pyrimidin-7-yl)-benzamidine bistrifluoroacetate] | < 2 nM | < 2000 nM
16 | CCOc1nc(N2CCNCC2)nc2c1sc1nc(-c3ccc(NC=O)cc3)cc(C(F)(F)F)c12 [N-(4-(4-Ethoxy-9-trifluoromethyl-2-piperazin-1-yl-pyrido[3′,2′:4,5]thieno[3,2-d]pyrimidin-7-yl)-phenyl)-formamide] | < 2 nM | < 2000 nM
17 | CCOc1nc(N2CCNCC2)c2sc3nc(C)cc(-c4ccccc4)c3c2n1 [2-Ethoxy-7-methyl-9-phenyl-4-(piperazin-1-yl)-pyrido[3′,2′:4,5]thieno[3,2-d]pyrimidine-hydrochloride] | – | < 2000 nM
18 | CCOc1nc(N2CCNCC2)c2sc3nc(-c4ccc(OC)c(OC)c4)cc(C)c3c2n1 [2-Ethoxy-7-(3,4-dimethoxy-phenyl)-9-methyl-4-(piperazin-1-yl)-pyrido[3′,2′:4,5]thieno[3,2-d]pyrimidine] | 2 to 50 nM | < 2000 nM
19 | CCOc1nc(N2CCNCC2)nc2c1sc1nc(N3CCOCC3)c3c(c12)CCCC3 [8-Ethoxy-5-morpholino-10-piperazin-1-yl-pyrimido[4′,5′:4,5]thieno[2,3-c]-1,2,3,4-tetrahydro-isoquinoline] | 2 to 50 nM | < 2000 nM
20 | CCOc1nc(N2CCNCC2)nc2c1sc1nc(-c3ccc(-c4ccoc4)cc3)nc(C)c12 [4-Ethoxy-7-(4-[3-furyl]-phenyl)-9-methyl-2-piperazin-1-yl-thieno[2,3-d:4,5-d′]dipyrimidine] | < 2 nM | < 2000 nM
21 | CCOc1nc(N2CCNCC2)nc2c1sc1nc(-c3ccc(F)cc3)cc(C)c12 [4-Ethoxy-7-(4-fluoro-phenyl)-9-methyl-2-(piperazin-1-yl)-pyrido[3′,2′:4,5]thieno[3,2-d]pyrimidine] | 2 to 50 nM | < 2000 nM
22 | CCOc1nc(N2CCNCC2)nc2c1sc1nc(C)c(Cc3ccc(N)cc3)c(C)c12 [8-(4-Amino-benzyl)-4-ethoxy-7,9-dimethyl-2-(piperazin-1-yl)-pyrido[3′,2′:4,5]thieno[3,2-d]pyrimidine] | 2 to 50 nM | < 2000 nM
23 | CCOc1nc(N2CCNCC2)nc2c1sc1nc(-c3ccc(SC)cc3)cc(CC)c12 [4-Ethoxy-9-ethyl-7-(4-methylthio-phenyl)-2-(piperazin-1-yl)-pyrido[3′,2′:4,5]thieno[3,2-d]pyrimidine] | < 2 nM | –
24 | CCOc1nc(N2CCNCC2)nc2c1sc1nc(-c3ccc(-c4ccco4)cc3)nc(C)c12 [4-Ethoxy-7-(4-[2-furyl]-phenyl)-9-methyl-2-piperazin-1-yl-thieno[2,3-d:4,5-d′]dipyrimidine] | < 2 nM | –
25 | CCOc1nc(N2CCNCC2)nc2c1sc1nc(-c3ccc(C(F)(F)F)cc3)cc(C)c12 [4-Ethoxy-7-(4-trifluoro-methyl-phenyl)-9-methyl-2-(piperazin-1-yl)-pyrido[3′,2′:4,5]thieno[3,2-d]pyrimidine] | 2 to 50 nM | –
26 | CCOc1nc(N2CCNCC2)nc2c1sc1nc(-c3ccc(OC(C)C)cc3)nc(C)c12 [4-Ethoxy-9-methyl-2-piperazin-1-yl-7-(4-iso-propoxy-phenyl)-thieno[2,3-d:4,5-d′]dipyrimidine] | 2 to 50 nM | –
27 | CCOc1nc(N2CCNCC2)nc2c1sc1nc(-c3ccc(OC)cc3)c(Cc3ccc([N+](=O)[O-])cc3)c(C)c12 [4-Ethoxy-7-(4-methoxy-phenyl)-9-methyl-8-(4-nitro-benzyl)-2-(piperazin-1-yl)-pyrido[3′,2′:4,5]thieno[3,2-d]pyrimidine] | 2 to 50 nM | –
28 | CCOc1nc(N2CCNCC2)nc2c1sc1nc(-c3ccc(-c4cccnc4)cc3)nc(C)c12 [4-Ethoxy-9-methyl-2-piperazin-1-yl-7-(4-[3-pyridyl]-phenyl)-thieno[2,3-d:4,5-d′]dipyrimidine] | < 2 nM | –
29 | CCOc1nc(N2CCNCC2)nc2c1sc1nc(-c3ccc(I)cc3)cc(C(F)(F)F)c12 [4-Ethoxy-7-(4-iodo-phenyl)-2-(piperazin-1-yl)-9-trifluoromethyl-pyrido[3′,2′:4,5]thieno[3,2-d]pyrimidine] | < 2 nM | –
30 | CCOc1nc(N2CCNCC2)nc2c1sc1nc(-c3cccc4ccccc34)nc(C)c12 [4-Ethoxy-9-methyl-7-(1-naphthyl)-2-piperazin-1-yl-thieno[2,3-d:4,5-d′]dipyrimidine] | 2 to 50 nM | –
31 | CCOc1nc(N2CCNCC2)nc2c1sc1nc(-c3ccc(NC(=O)OC)cc3)cc(C(F)(F)F)c12 [4-(4-Ethoxy-9-trifluoromethyl-2-piperazin-1-yl-pyrido[3′,2′:4,5]thieno[3,2-d]pyrimidin-7-yl)-phenyl-carbamic acid methyl ester] | < 2 nM | –
